# Values of other authors, collected in US7767688B2, “Combination of pyrimidylaminobenzamide compounds and imatinib for treating gastrointestinal stromal tumours” (Novartis AG, priority 2005, dated 2010).
# Target: PDGFRA V561D juxtamembrane domain mutation (Homo sapiens, UniProt P16234, V561D)
# Conditions: V561D compared with D842V kinase domain mutation
# Chain of PDGFRA V561D juxtamembrane domain mutation (P16234 24-1089 V561D): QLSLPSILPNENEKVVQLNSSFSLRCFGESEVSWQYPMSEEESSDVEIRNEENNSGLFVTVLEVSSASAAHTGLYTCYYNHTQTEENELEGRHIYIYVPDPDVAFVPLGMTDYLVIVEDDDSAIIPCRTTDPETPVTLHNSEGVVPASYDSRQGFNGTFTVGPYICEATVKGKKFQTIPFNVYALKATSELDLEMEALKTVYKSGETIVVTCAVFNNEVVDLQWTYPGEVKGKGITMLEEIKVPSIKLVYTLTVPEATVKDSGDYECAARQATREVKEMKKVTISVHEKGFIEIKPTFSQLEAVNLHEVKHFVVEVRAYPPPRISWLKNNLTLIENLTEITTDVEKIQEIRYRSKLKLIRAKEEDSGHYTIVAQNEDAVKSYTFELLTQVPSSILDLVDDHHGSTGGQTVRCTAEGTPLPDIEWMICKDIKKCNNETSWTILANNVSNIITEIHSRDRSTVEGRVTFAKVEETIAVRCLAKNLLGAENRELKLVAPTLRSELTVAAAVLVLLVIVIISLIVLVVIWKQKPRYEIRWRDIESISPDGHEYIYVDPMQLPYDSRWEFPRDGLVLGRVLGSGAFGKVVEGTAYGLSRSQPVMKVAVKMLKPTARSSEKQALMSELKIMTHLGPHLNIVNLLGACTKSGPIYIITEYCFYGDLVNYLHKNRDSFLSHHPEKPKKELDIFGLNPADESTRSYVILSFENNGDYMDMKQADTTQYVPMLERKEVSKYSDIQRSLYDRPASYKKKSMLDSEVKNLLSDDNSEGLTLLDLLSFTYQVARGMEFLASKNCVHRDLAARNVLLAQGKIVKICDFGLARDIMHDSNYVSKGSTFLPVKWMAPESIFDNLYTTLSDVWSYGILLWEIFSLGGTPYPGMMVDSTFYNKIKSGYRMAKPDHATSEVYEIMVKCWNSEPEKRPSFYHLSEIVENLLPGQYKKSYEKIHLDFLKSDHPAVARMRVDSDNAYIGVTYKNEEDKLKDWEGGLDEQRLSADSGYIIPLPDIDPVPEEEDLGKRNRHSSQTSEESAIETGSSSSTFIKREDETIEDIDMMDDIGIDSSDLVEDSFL
compound,measurement,value
Cc1ccc(NC(=O)c2ccc(CN3CCN(C)CC3)cc2)cc1Nc1nccc(-c2cccnc2)n1 [imatinib],Sensitivity to imatinib by location of PDGFRA mutation,more sensitive to imatinib than the D842V kinase domain mutation
